In patent US11427547B2, “Edaravone prodrug compound and pharmaceutical use thereof in treatment or alleviation of neurodegenerative or motor neuron disease” (J2H BIOTECH INC., priority 2018, dated 2022):
Values after ≈ are worked out from the molar mass of the structure shown. Where a name gives a salt, the structure may show the parent alone.

Assays:
[1] = Pharmacokinetic evaluation: edaravone in plasma after single oral administration to rats; assay type: in vivo, SD (Sprague-Dawley) rats; conditions: SD rats
Description: The pharmacokinetic test of the compounds of Examples and Reference Example was carried out as follows. That is, after a single oral administration of the test compound to SD (Sprague-Dawley) rats, the efficacy of the compound of the present invention was verified by tracking the kinetics of the edaravone released into the blood by metabolic processes and comparing it with a standard substance. Specifically, edaravone, a standard substance, was administered intravenously and orally, respectively, and the test compounds were administered orally. Then, the concentration of edaravone in blood was evaluated. The standard substance and the test compounds were each prepared in the same manner and then administered to rats at a dose of 0.1 mmol/kg, and blood was collected at a predetermined time and plasma was separated. Analysis of the drug was performed using HPLC (XBridge column Cis, Waters, mobile phase 0.1% formic acid:acetonitrile (30:70, %/%)) and MS/MS (ESI positive, MRM). Each commercial standard solution was mixed in a ratio of 9:1 with rat plasma to prepare and calibrate at concentrations of 5, 50, 100, 500, 1000 and 5000 ng/ml. In addition, the QC sample was prepared by mixing the rat plasma and the standard solution for QC at a ratio of 9:1, and at concentrations of 100, 750 and 2,500 ng/ml. In the pretreatment method, 100 μl of plasma sample was transferred to a tube for centrifugation, 10 μl of an internal standard solution and 300 μl of methanol were added, followed by mixing for about 30 seconds. The tube was centrifuged at 3,000×g (4° C.) for about 5 minutes, the supernatant was taken and transferred to an LC vial, and then injected into the instrument. In addition, the concentration of an active ingredient, that is, edaravone, in rat plasma was quantified by applying a previously validated analysis method. For pharmacokinetic parameters, WinNonlin 5.2 (Pharsight, USA) program was used, and AUC0-t, AUC0-∞, Cmax, Tmax, and t1/2 were calculated by noncompartment modeling (best fit). The pharmacokinetic parameter results were expressed as mean and standard deviation (SD), and statistically processed using the SPSS program (Statistical Package for the Social Sciences, 10.0K, USA).

[2] = cited from earlier work
[3] = cited from earlier work; remark: listed apart in the source
[4] = in vivo; cited from earlier work

Row | Structure (SMILES) | oral bioavailability (in words) [1] | solubility [2] [µg/mL] | permeability (Peff) [3] [×10⁻⁶ cm/s] | oral absorption rate (Fabs) [4] [%]
1 | Cc1cc(OC(=O)N2CCN(C(=O)[C@@H](N)C(C)(C)C)CC2)n(-c2ccccc2)n1.Cl [Example 15, (S)-3-methyl-1-phenyl-1H-pyrazol-5-yl 4-(2-amino-3,3-dimethylbutanoyl)piperazine-1-carboxylate Hydrochloride] | excellent | – | – | –
2 | CC1=NN(c2ccccc2)C(=O)C1 [edaravone] | – | 1850 (≈ 10.6 mM) | 0.318 | 5.23
3 | Cc1cc(OC(=O)N2CCN(C(=O)[C@@H](N)C(C)C)[C@@H](C)C2)n(-c2ccccc2)n1.Cl [Example 14, (S)-3-methyl-1-phenyl-1H-pyrazol-5-yl 4-((S)-2-amino-3-methylbutanoyl)-3-methylpiperazin-1-carboxylate Hydrochloride] | excellent | – | – | –
4 | Cc1cc(OC(=O)N2CCN(C(=O)[C@@H](N)C(C)C)CC2)n(-c2ccccc2)n1.Cl [Example 10, (S)-3-methyl-1-phenyl-1H-pyrazol-5-yl 4-(2-amino-3-methylbutanoyl)piperazine-1-carboxylate Hydrochloride] | excellent | – | – | –
5 | Cc1cc(OC(=O)N2CCN(C(=O)[C@@H](N)CCCCN)CC2)n(-c2ccccc2)n1 [Example 19, (S)-3-methyl-1-phenyl-1H-pyrazol-5-yl 4-(2,6-diaminohexanoyl)piperazine-1-carboxylate Dihydrochloride] | excellent | – | – | –
